We go through one compound from patent US6682892B2, “Method for treating herpes viruses” (priority 2000, dated 2004).

One assay concerns HCMV AD169. Description: Plaque reduction assay, HCMV AD169. The assay is classed as cell-based. As to conditions: Table 4, plaque reduction, wild type; read-out: HCMV AD169 IC50. On the procedure:
(§1) Antiviral activity of compounds against herpesviruses such as HSV-1, HSV-2, or HCMV can be measured using plaque reduction assays. 0.1 ml of media containing approximately 50 PFU of virus is added to each well of a 24-well cell culture dish containing a confluent monolayer of cells (Vero cells for HSV-1 and HSV-2, HFF cells for HCMV). Compounds are dissolved in 100% DMSO and diluted in 100% DMSO as 200× stocks of the desired final drug concentration. Typically 5-6 two-fold dilutions are prepared for each compound. Dilutions of compounds are then added to media containing 0.8% CMC resulting in a final 1× drug concentration. After the virus-infected cells have incubated for 1 h at 37° C., the virus innoculum is removed and 1 ml of media containing 0.8% CMC and the various concentrations of compound is added to each well of the dish. The dish is incubated at 37° C. for approximately 2-3 days (HSV-1 and HSV-2) or 6-9 days (HCMV) to allow sufficient growth of virus to form plaques in the cell monolayer. Plaques can be observed and counted microscopically or by staining the cells with 0.1% crystal violet in 20% ethanol. […] Antiviral activity of a compound is expressed as the concentration of compound predicted to reduce the number of plaques in a well by 50% (IC50). The IC50 values are calculated by plotting the per cent inhibition vs. concentration of compound using EXCEL software for linear regression.
Background: Plaque reduction counts the foci of infection that form in a cell layer.

Assay [1] has as its target T1, HCMV V823A/V824L polymerase (Human cytomegalovirus, UniProt P08546, V823A/V824L).
T1 construct: made in house
T1 sequence (P08546 1-1242 V823A/V824L): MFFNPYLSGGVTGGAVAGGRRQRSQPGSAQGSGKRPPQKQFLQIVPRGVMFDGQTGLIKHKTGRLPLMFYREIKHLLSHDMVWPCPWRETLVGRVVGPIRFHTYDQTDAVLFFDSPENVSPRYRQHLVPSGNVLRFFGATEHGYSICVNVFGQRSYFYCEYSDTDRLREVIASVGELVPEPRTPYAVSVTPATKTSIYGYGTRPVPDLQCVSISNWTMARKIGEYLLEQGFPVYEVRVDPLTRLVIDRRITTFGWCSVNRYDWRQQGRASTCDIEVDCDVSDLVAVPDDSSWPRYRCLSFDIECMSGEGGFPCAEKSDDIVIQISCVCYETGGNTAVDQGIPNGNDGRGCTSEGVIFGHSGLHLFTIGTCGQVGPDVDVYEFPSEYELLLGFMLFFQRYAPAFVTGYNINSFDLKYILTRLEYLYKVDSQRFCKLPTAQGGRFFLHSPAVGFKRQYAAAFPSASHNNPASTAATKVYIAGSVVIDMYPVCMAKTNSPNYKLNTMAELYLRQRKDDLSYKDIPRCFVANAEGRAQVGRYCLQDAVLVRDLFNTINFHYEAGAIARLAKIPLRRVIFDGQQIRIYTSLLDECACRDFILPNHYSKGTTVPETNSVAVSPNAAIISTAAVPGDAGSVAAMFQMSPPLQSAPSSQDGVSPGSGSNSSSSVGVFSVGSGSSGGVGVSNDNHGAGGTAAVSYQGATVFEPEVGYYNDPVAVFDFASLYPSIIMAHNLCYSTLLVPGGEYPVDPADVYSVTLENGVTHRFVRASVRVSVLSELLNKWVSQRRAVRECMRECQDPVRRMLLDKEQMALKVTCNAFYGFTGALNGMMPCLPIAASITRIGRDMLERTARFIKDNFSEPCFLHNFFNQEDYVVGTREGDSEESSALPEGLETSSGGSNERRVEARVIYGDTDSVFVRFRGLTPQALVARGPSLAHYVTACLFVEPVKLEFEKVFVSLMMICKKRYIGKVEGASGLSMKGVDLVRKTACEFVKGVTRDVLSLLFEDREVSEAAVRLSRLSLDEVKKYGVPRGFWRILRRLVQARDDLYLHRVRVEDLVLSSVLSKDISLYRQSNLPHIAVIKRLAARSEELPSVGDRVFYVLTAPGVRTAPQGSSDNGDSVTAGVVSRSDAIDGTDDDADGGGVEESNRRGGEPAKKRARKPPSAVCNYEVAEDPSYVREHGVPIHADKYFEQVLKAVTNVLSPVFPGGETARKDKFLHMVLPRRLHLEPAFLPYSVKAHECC
Description: In vitro polymerase assay, mutant HCMV polymerase V823A/V824L. The assay is classed as biochemical. The protocol: In order to select for a 4-oxo-DHQ HCMV resistant mutant, virus (strain AD169) is serially passaged in the presence of 20 uM a 4-oxo-DHQ. […] In order to determine if both valines need to be changed in order to confer resistance to the 4-oxo-DHQ's, in vitro polymerase assays are done using mutant HCMV polymerases containing either V823A or V823A plus V824L (Table 3).

For assay [2], the system named is HCMV AD169-M1 (V823A, V824L). Nature of the assay: Plaque reduction assay, 4-oxo-DHQ resistant HCMV AD169-M1. Conditions: Table 4, plaque reduction, resistant mutant; read-out: HCMV AD169 - M1 IC50. The format is cell-based. On the procedure: as §1
A plasmid containing the wild-type HCMV polymerase gene is modified to contain the V823A or V823A and V824L mutations using a site-directed mutagenesis Kit (Stratagene Corp.) and following the manufactures's protocol. HFF cells are plated into T25 tissue culture flasks to achieve 80% confluency at the time of the transfection. Wild type HCMV AD 169 DNA and plasmid DNA containing the mutant HCMV polymerase gene are mixed at a ratio of 1:2 (2 ug of viral DNA to 4 ug of plasmid DNA). DNA's are transfected using superfect transfection reagent according to methods recommended by the manufacturer (Quiagen Inc.). Cells are harvested five days posttransfection, freeze-thawed to release virus and half of the sample is used to infect HFF cell monolayers. Cells are overlayed with media containing 20 uM 4-oxo-DHQ compound 2 (see FIG. 1). Serial passage is repeated seven times in the presence of 20 uM compound 2 and virus isolates are then plaque purified three times prior to preparation of viral stock.
In order to isolate an HCMV resistant mutant marker rescue experiments are done. Plasmids containing the mutant polymerase genes are transfected into HFF cells along with wild type HCMV AD169 DNA. The resulting virus is then serially passaged in the presence of 20 uM compound 1 (see FIG. 1). A 4-oxo-DHQ resistant virus is isolated from marker rescue studies done with the HCMV polymerase gene containing mutations that result in the V823A, V824L amino acid changes, but not with the gene containing V823A change alone.

The structures appear in SMILES notation.

As usually defined, the IC50 is the concentration that gives 50% inhibition. As to `Cn1cc(C(=O)NCc2ccc(Cl)cc2)c(=O)c2cc(/C=C\CO)cc(F)c21` [Compound 1], the half-maximal inhibitory concentration (IC50) in the assay on HCMV AD169 is 0.7 µM; in assay [1] (Table 3) it was 42.9 µM; in assay [2] it was 4.7 µM. Moreover, the “increase in resistance, HCMV V823A/V824L polymerase” value in assay [1] (relative to wild type) was “*Mutation of the amino acid from valine to alanine and amino acid 824 from valine to leucine results in an 9-fold increase in resistance, relative to wild type”.
